Assay results from ChEMBL document CHEMBL1201862, “PubChem BioAssay data set” (2004).
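The compound was tested at five concentrations on cells cultured in 96-well plates, with a 48-hour exposure period. GI50 = concentration required for 50% inhibition of growth.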 Activity calls are given as the source filed them. Cut-off read from the data, not from the text of the source: active = GI50 up to about 1.1 µM and inactive = higher.

Legend:
Assay in all cases: NCI anticancer screen, dose series, 48 h
KM12 = tested on: KM12
A498 = tested on: A498
SN12C = tested on: SN12C
NCI-H23 = tested on: NCI-H23
U-251 = tested on: U-251
SF-295 = tested on: SF-295
HT-29 = tested on: HT-29
NCI-H522 = tested on: NCI-H522
TK-10 = tested on: TK-10
Malme-3M = tested on: Malme-3M
HL-60 = tested on: HL-60
M14 = tested on: M14
UACC-62 = tested on: UACC-62
786-0 = tested on: 786-0
UO-31 = tested on: UO-31
RPMI-8226 = tested on: RPMI-8226
SK-OV-3 = tested on: SK-OV-3
CCRF-CEM = tested on: CCRF-CEM
COLO 205 = tested on: COLO 205

Structure (SMILES)	GI50 (KM12)	GI50 (A498)	GI50 (SN12C)	GI50 (NCI-H23)	GI50 (U-251)	GI50 (SF-295)	GI50 (HT-29)	GI50 (NCI-H522)	GI50 (TK-10)	GI50 (Malme-3M)	GI50 (HL-60)	GI50 (M14)	GI50 (UACC-62)	GI50 (786-0)	GI50 (UO-31)	GI50 (RPMI-8226)	GI50 (SK-OV-3)	GI50 (CCRF-CEM)	GI50 (COLO 205)
Cc1cc(O)c(C(C)C)cc1NC(=O)Nc1cccc2ccccc12	15.7 µM (inactive)	13.1 µM (inactive)	16.5 µM (inactive)	19.3 µM (inactive)	17.2 µM (inactive)	13.8 µM (inactive)	17.5 µM (inactive)	15.1 µM (inactive)	18.2 µM (inactive)	19.5 µM (inactive)	23.8 µM (inactive)	18 µM (inactive)	13 µM (inactive)	15.3 µM (inactive)	17.1 µM (inactive)				
COc1cc2c(cc1OC)C(=O)N(c1ccc(OCCN3CCCC3)cc1)C2=O	> 100 µM (inactive)	> 100 µM (inactive)	> 100 µM (inactive)	> 100 µM (inactive)	> 100 µM (inactive)	> 100 µM (inactive)	> 100 µM (inactive)	> 100 µM (inactive)	> 100 µM (inactive)	20.8 µM (inactive)	> 100 µM (inactive)	> 100 µM (inactive)	> 100 µM (inactive)	> 100 µM (inactive)		> 100 µM (inactive)	> 100 µM (inactive)	> 100 µM (inactive)	> 100 µM (inactive)
Nc1nc(N)c2c(-c3ccccc3)ccnc2n1		> 100 µM (inactive)	> 100 µM (inactive)	> 100 µM (inactive)	> 100 µM (inactive)	> 100 µM (inactive)	> 100 µM (inactive)	> 100 µM (inactive)	> 100 µM (inactive)	> 100 µM (inactive)	> 100 µM (inactive)		> 100 µM (inactive)	67.1 µM (inactive)	> 100 µM (inactive)	> 100 µM (inactive)	> 100 µM (inactive)	> 100 µM (inactive)	> 100 µM (inactive)
N=C1C=C(N)C(=O)c2[nH]c(=O)ccc21	1.82 µM (inactive)	2.95 µM (inactive)	1.76 µM (inactive)	2.23 µM (inactive)	2.04 µM (inactive)	17.3 µM (inactive)	2.37 µM (inactive)	1.56 µM (inactive)	12.4 µM (inactive)	2.39 µM (inactive)	2.63 µM (inactive)	14.8 µM (inactive)	2.3 µM (inactive)	1.91 µM (inactive)		2.15 µM (inactive)	13.8 µM (inactive)	2.36 µM (inactive)	1.73 µM (inactive)
NC(CCSCCF)C(=O)O (stereo unspecified)	> 100 µM (inactive)	> 100 µM (inactive)	> 100 µM (inactive)	> 100 µM (inactive)	> 100 µM (inactive)		> 100 µM (inactive)	> 100 µM (inactive)	> 100 µM (inactive)		> 100 µM (inactive)	> 100 µM (inactive)	> 100 µM (inactive)	> 100 µM (inactive)	> 100 µM (inactive)	> 100 µM (inactive)	> 100 µM (inactive)	> 100 µM (inactive)	> 100 µM (inactive)
CCn1c2ccccc2c2cc(Nc3cc(C)[nH]c(=O)n3)ccc21	5.7 µM (inactive)	> 100 µM (inactive)	> 100 µM (inactive)	> 100 µM (inactive)	> 100 µM (inactive)	4.53 µM (inactive)	> 100 µM (inactive)	0.916 µM (active)	> 100 µM (inactive)		0.255 µM (active)	> 100 µM (inactive)	0.349 µM (active)	> 100 µM (inactive)	> 100 µM (inactive)		> 100 µM (inactive)		> 100 µM (inactive)
